Paper PMC10011747, “Targeting androgen receptor and the variants by an orally bioavailable Proteolysis Targeting Chimeras compound in castration resistant prostate cancer” (eBioMedicine, 2023)

What was measured:
[1] = In vitro stability in plasma; assay type: in vitro ADME; conditions: mouse, BALB/c mice plasma, 37 °C, read-out: Plasma stability T1/2
Experimental: The in vitro stability of the PROTAC compounds was performed in BALB/C (BALB/cAnNCrlBltw) mice plasma. The reactions were initiated by adding 10 μM PROTAC compounds to 0.5 mL of pre-warmed plasma solution. The assays were performed in Thermomixer at 37 °C. During the incubation, 20 μL samples were taken at 0, 30, 60, 120, and 240 min time points, and added to 120 μL of acetonitrile to deproteinize the plasma. After 10 min of centrifugation at 14,000 rpm, the supernatants were collected for subsequent HPLC-UV analysis (Waters 1525 Binary and 2707 Autosampler).

CWR22Rv1 xenograft = CWR22Rv1 xenograft efficacy study; assay type: in vivo
Experimental: Immunodifficient male C.B-17 SCID mice (NOD.CB17-Prkdc^scid/NcrCrlBltw) at 4–6 weeks of age were purchased from BioLASCO Taiwan Co., Ilan, Taiwan. All mice were housed in conventional cages in the AAALAC Full Accreditation (2011) in Industrial Technology Research Institute and were allowed to acclimatize and recover from shipping-related stress for one week prior to the study. The health of the mice was monitored by daily observations. Animals were kept in rooms at temperature of 22–26 °C with 40–70% humidity, positive pressure, 60% air recirculation, ventilation rate 15–20 changes per hour, and a controlled light–dark cycle (12–12 h). The order and location of each animal cage was randomly assigned to minimize potential confounders. CWR22Rv1 cells (5 × 10^6) were suspended in 100 μL of PBS with 30% Matrigel and subcutaneously implanted into the right flank of male C.B-17 SCID mice. Tumors were measured with calipers, and tumor size was calculated as follows: tumor volume (V) = (L × S^2)/2 (L, longest diameter, mm; S, shortest diameter, mm). When mean tumor volume reached 150–200 mm^3, the mice were randomly assigned into indicated groups (n = 5–6/group) and the day of initiating treatments was assigned as day 0. In the study using intraperitoneal (IP) injection, the mice received vehicle control (NMP: Cremophor: PBS = 1:2:7 (v:v:v)), ITRI-90 (10 mg/kg, BID) or ITRI-126 (10 mg/kg, BID) for the indicated days. In the study using oral (PO) gavage, the mice received vehicle control or ITRI-90 (100 mg/kg, BID) for 21 days. Tumor size and body weight of the animals were monitored and recorded two to three times per week. Mice were sacrificed when one of the tumor reached over 1000 mm^3 in size. Tumors were collected and immediately subjected to liquid nitrogen freezing and homogenization. The homogenized tumor samples were stored at −80 °C for subsequent western blotting analysis. The drug antitumor efficacy was presented as percentages of TGI of each tested animal, calculated as follows: [1 − (final tumor volume − initial tumor volume of the treated group)/average of (final tumor volume − initial tumor volume of the vehicle group)] × 100. Body weight of each mouse was also compared to that on the first day of treatment (day 0) and expressed as a percentage of day 0 value. All data points were included for calculation and the values are presented as mean ± SEM. Statistical analysis of the differences between two drug and vehicle treated groups was determined by two-tailed Student's t test. For negative control, same procedures as described above were followed. PC3 cells (5 × 10^6) mixing with 50% matrigel were subcutaneously implanted into both flanks of 8 male C.B-17 SCID mice, followed by random assignment for oral administration of vehicle control or ITRI-90 drug (100 mg/kg, BID) treatment (n = 4/group).

[2] = system: AR-negative PC3 prostate cancer model; assay: PC3 xenograft negative control study; assay type: in vivo, mouse; conditions: PO 100 mg/kg twice daily
Experimental: Immunodifficient male C.B-17 SCID mice (NOD.CB17-Prkdc^scid/NcrCrlBltw) at 4–6 weeks of age were purchased from BioLASCO Taiwan Co., Ilan, Taiwan. All mice were housed in conventional cages in the AAALAC Full Accreditation (2011) in Industrial Technology Research Institute and were allowed to acclimatize and recover from shipping-related stress for one week prior to the study. The health of the mice was monitored by daily observations. Animals were kept in rooms at temperature of 22–26 °C with 40–70% humidity, positive pressure, 60% air recirculation, ventilation rate 15–20 changes per hour, and a controlled light–dark cycle (12–12 h). […] Tumors were measured with calipers, and tumor size was calculated as follows: tumor volume (V) = (L × S^2)/2 (L, longest diameter, mm; S, shortest diameter, mm). […] Tumor size and body weight of the animals were monitored and recorded two to three times per week. […] The drug antitumor efficacy was presented as percentages of TGI of each tested animal, calculated as follows: [1 − (final tumor volume − initial tumor volume of the treated group)/average of (final tumor volume − initial tumor volume of the vehicle group)] × 100. Body weight of each mouse was also compared to that on the first day of treatment (day 0) and expressed as a percentage of day 0 value. […]
Figure S15. […] (a) CWR22Rv1 and PC3 cell viability was detected upon 7 days treatment of ITRI-90. […]

[3] = Metabolic stability in liver microsomes; assay type: in vitro ADME; conditions: pooled liver microsomes, pH 7.4, mouse CD-1 liver microsome 0.8 mg/mL, read-out: MLM stability T1/2
Experimental: The mouse CD-1 pooled liver microsome (Corning Product ID: 452701, Lot: 0010003) was used to test compound stability. The reaction was carried out in 100 mM, pH 7.4 phosphate buffer containing microsome (0.8 mg/mL), NADP^+ (1.3 mM), glucose-6-phosphate (3.3 mM), glucose-6-phosphate dehydrogenase (0.4 U/mL), magnesium chloride (3.3 mM) and the test article (1 μM) with 1% (v/v) final concentration of DMSO. The reaction was incubated at 37 °C with shaking. At 0, 10, 20, and 30 min time points, 20 μL of the reaction mixture was taken and quenched immediately with 120 μL acetonitrile. The quenched sample were centrifuged, and the supernatant was then analyzed by LC-MS/MS (ABI4000Q-TRAP). 1 μM warfarin and 1 μM verapamil with same reaction conditions was used as negative and positive control, respectively.

AR-negative PC3 cells = assay: Cell viability, PC3; assay type: cell-based, human; conditions: 7 days treatment
Experimental: (§1) Cells were seeded in triplicate in 96-well plates 1 day prior to drug treatment for all assays. For viability test and IC50 assessment, the alamarBlue™ Cell Viability Reagent (Thermo Fisher Scientific) was added to cells 7 days after PROTAC treatment, followed by fluorescence detection as the manufacturer instructed. The IC50 was calculated by dose-inhibition regression. For proliferation monitoring, 2, 4, 6 and 8 days after PROTAC treatment (day 0), viable cells were detected by MTT Cell Proliferation Kit I (Sigma–Aldrich) according to the manufacturer's instructions. Cellular caspase activity was measured by Caspase-Glo 3/7 Assay System (Promega) 1 or 2 days after the drug treatment.
Figure S15. ITRI-90 is ineffective for AR-n egative PC3 cells. (a) CWR22Rv1 and PC3 cell viability was detected upon 7 days treatment of ITRI-90. (b,c) Antitumor activity of ITRI -90 towards PC3 tumor xenografts.
PC3 tumor xenografts implanted in SCID mice were treated with ITRI-90 orally using 100 mg/kg twice daily dosing. The numbers of tumor in each group is as indicated. (b) Scatter plots of the tumor size. (c) Western blotting of AR and AR -V proteins in the tumors collected at the final time points. CWR22Rv1 xenograft samples from Figure 7i were used as positive control for AR and AR-V expression.
(1 picture or pasted object on this page, not shown here)

caspase 3/7 = assay: Caspase-Glo 3/7 activity; assay type: cell-based, human; conditions: 5 μM LNCaP, 1 μM CWR22Rv1, two days after treatment
Experimental: as §1

| Compound | half-life at 10 μM [1] [h] | toxicity monitored by animal body weight (CWR22Rv1 xenograft; IP 10 mg/kg twice daily) | tumor growth inhibition (TGI) (CWR22Rv1 xenograft; IP 10 mg/kg twice daily, day 12, SCID mice, no hormone manipulation) [%] | toxicity monitored by animal body weight (CWR22Rv1 xenograft; PO 100 mg/kg twice daily, 21 days) | tumor growth inhibition (TGI) (CWR22Rv1 xenograft; PO 100 mg/kg twice daily, day 21, SCID mice, no hormone ablation) [%] | AR-FL and AR-Vs protein levels in tumors (CWR22Rv1 xenograft; PO 100 mg/kg twice daily, final time point, western blot) | antitumor activity towards PC3 tumor xenografts [2] | half-life at 1 μM [3] [h] | PC3 cell viability (AR-negative PC3 cells) | caspase 3/7 activity at lower concentrations (caspase 3/7) | tumor growth inhibition (TGI) (CWR22Rv1 xenograft; IP 10 mg/kg twice daily, day 14, SCID mice, no hormone manipulation) [%] | toxicity monitored by animal body weight (CWR22Rv1 xenograft; mouse, in vivo, ip, 10 mg/kg) |
| --- | --- | --- | --- | --- | --- | --- | --- | --- | --- | --- | --- | --- |
| Cc1ncsc1-c1ccc(CNC(=O)[C@@H]2C[C@H](O)CN2C(=O)[C@@H](NC(=O)COCCCCOc2ccc(C3CCN(C4=Nn5c(nnc5C(F)(F)F)CC4)CC3)cc2)C(C)(C)C)cc1 [ITRI-90, (2S,4S)-1-((S)-3,3-dimethyl-2-(2-(4-(4-(1-(3-(trifluoromethyl)-7,8-dihydro-[1,2,4]triazolo[4,3-b]pyridazin-6-yl)piperidin-4-yl)phenoxy)butoxy)acetamido)butanoyl)-4-hydroxy-N-(4-(4-methylthiazol-5-yl)benzyl)pyrrolidine-2-carboxamide] | > 4 | without obvious toxicities | 76.64 ± 11.1 | without obvious toxicity | 71.73 ± 6.42 | reduced | ineffectiveness | > 0.5 | ineffective | – | – | – |
| Cc1ncsc1-c1ccc(CNC(=O)[C@@H]2C[C@H](O)CN2C(=O)[C@@H](NC(=O)COCCCCCCOc2ccc(C3CCN(C4=Nn5c(nnc5C(F)(F)F)CC4)CC3)cc2)C(C)(C)C)cc1 [ITRI-125, (2S,4S)-1-((S)-3,3-dimethyl-2-(2-(6-(4-(1-(3-(trifluoromethyl)-7,8-dihydro-[1,2,4]triazolo[4,3-b]pyridazin-6-yl)piperidin-4-yl)phenoxy)hexyloxy)acetamido)butanoyl)-4-hydroxy-N-(4-(4-methylthiazol-5-yl)benzyl)pyrrolidine-2-carboxamide] | > 4 | – | – | – | – | – | – | > 0.5 | – | – | – | – |
| O=C1CCC(N2Cc3c(NC(=O)COCCCCOc4ccc(C5CCN(C6=Nn7c(nnc7C(F)(F)F)CC6)CC5)cc4)cccc3C2=O)C(=O)N1 (centres unmarked) [ITRI-126, N-(2-(2,6-dioxopiperidin-3-yl)-1-oxoisoindolin-4-yl)-2-(4-(4-(1-(3-(trifluoromethyl)-7,8-dihydro-[1,2,4]triazolo[4,3-b]pyridazin-6-yl)piperidin-4-yl)phenoxy)butoxy)acetamide] | – | – | – | – | – | – | – | – | – | induced strong caspase activity two days after drug treatment | 49.8 ± 11.1 | without obvious toxicities |
